Source: PMC10322970, “Modular synthesis of clickable peptides via late-stage maleimidation on C(7)-H tryptophan” (Nature Communications, 2023)

Legend:
[1] = Rh(III)-catalysed intramolecular C(7)-H maleimidation of N-pivaloyl Trp (oxidative Heck-type C-C bond, indole C7 to maleimide CH): [RhCp*Cl2]2 10 mol%, AgNTf2 40 mol%, Ag2O 1.5 eq; conditions: DCM, 12.0 mM, 80.0 °C, 24.0 h
MCF-7 cells = test: Cytotoxicity by MTT assay, MCF-7; conditions: MCF-7 (integrin αvβ3-negative), 0–40 μM, 36 h
U87MG cells = test: Cytotoxicity by MTT assay, U87MG; conditions: U87MG (integrin αvβ3-positive), 0–40 μM, 36 h
LO2 cells = test: Cytotoxicity by MTT assay, LO2; conditions: LO2 normal cells, 0–40 μM, 36 h
MIHA cells = test: Cytotoxicity by MTT assay, MIHA; conditions: MIHA normal cells, 0–40 μM, 36 h
HeLa cells = test: Cytotoxicity by MTT assay, HeLa; conditions: HeLa (integrin αvβ3-negative), 0–40 μM, 36 h
A549 cells = test: Cytotoxicity by MTT assay, A549; conditions: A549 (integrin αvβ3-positive), 0–40 μM, 36 h
integrin α5β1 = integrin α5β1 (Homo sapiens, UniProt P05556+P08648); test: SPR binding to immobilised integrin α5β1; conditions: for kon: read-out: ka
integrin αvβ3 = integrin αvβ3 (Homo sapiens, UniProt P05106+P06756); test: SPR binding to immobilised integrin αvβ3; conditions: for kon: read-out: ka
integrin αvβ5 = integrin αvβ5 (Homo sapiens, UniProt P06756+P18084); test: SPR binding to immobilised integrin αvβ5; conditions: for kon: read-out: ka
Chain of integrin αvβ5 (P06756 31-1048): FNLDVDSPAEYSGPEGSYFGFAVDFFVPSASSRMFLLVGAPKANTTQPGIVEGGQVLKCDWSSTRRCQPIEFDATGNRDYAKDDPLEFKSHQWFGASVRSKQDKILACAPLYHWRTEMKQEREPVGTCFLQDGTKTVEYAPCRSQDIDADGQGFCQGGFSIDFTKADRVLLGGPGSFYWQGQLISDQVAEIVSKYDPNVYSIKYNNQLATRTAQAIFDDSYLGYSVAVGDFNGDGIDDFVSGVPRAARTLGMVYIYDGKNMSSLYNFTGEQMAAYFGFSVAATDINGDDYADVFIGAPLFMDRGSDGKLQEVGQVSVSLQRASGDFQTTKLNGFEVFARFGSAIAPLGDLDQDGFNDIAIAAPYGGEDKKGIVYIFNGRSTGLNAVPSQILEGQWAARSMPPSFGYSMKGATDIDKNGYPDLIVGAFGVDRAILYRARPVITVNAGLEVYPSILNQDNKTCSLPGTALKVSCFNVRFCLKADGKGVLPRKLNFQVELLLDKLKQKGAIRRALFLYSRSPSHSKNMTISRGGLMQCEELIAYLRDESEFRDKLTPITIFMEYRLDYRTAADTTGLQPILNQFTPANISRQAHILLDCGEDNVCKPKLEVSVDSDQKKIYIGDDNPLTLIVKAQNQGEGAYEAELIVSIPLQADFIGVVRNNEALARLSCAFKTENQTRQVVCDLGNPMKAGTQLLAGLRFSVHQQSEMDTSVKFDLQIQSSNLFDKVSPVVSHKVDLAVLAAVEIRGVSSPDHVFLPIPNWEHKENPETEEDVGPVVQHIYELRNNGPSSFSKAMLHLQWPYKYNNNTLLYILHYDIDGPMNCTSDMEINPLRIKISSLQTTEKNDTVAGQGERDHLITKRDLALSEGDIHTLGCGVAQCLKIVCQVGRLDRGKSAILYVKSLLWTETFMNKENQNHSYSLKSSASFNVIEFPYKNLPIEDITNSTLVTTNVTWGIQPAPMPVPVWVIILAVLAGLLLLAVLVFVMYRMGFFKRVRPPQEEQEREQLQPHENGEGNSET
Chain of integrin αvβ5 (P18084 24-799): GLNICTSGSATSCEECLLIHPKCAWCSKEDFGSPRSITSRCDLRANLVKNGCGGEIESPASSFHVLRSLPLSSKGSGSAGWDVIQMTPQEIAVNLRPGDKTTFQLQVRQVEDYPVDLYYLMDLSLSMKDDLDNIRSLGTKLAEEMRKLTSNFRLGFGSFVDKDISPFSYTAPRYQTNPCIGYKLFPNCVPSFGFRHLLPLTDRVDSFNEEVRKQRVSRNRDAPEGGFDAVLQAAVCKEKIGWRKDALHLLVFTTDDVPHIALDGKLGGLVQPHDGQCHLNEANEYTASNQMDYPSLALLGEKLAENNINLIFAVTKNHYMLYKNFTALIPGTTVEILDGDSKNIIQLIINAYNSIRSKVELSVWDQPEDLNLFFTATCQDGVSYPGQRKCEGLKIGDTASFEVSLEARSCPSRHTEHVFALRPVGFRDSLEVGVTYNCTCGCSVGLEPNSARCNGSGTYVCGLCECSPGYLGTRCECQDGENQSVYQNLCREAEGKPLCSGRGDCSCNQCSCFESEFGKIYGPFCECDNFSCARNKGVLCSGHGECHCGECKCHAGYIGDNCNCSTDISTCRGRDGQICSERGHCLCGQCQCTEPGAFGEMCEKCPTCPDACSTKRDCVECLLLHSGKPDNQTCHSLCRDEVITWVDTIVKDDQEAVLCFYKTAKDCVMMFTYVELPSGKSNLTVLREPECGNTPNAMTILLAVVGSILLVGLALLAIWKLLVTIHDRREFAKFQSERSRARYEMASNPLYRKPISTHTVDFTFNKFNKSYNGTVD

Chain of integrin αvβ3 (P06756 31-1048): as the sequence (P06756 31-1048) above
Chain of integrin αvβ3 (P05106 27-788): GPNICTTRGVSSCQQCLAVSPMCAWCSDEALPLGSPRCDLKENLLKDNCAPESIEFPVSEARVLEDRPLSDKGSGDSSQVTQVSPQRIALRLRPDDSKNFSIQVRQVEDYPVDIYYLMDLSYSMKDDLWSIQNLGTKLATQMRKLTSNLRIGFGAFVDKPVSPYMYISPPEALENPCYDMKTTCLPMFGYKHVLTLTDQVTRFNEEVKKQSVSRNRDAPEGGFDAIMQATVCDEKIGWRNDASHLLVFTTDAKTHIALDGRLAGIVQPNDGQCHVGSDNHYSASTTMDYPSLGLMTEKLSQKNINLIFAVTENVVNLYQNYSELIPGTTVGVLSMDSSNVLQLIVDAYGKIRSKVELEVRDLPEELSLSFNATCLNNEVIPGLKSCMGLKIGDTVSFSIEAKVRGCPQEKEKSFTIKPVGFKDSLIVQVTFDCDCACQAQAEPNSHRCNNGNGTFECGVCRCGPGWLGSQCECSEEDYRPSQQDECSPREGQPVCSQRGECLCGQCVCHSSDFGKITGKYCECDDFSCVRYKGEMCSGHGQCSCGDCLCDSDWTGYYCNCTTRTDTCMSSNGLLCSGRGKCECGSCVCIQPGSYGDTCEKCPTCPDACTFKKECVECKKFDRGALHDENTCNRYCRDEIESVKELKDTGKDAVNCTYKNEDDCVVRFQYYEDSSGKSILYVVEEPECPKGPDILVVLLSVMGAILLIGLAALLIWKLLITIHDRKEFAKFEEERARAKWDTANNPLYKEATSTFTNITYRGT
Chain of integrin α5β1 (P08648 42-1049): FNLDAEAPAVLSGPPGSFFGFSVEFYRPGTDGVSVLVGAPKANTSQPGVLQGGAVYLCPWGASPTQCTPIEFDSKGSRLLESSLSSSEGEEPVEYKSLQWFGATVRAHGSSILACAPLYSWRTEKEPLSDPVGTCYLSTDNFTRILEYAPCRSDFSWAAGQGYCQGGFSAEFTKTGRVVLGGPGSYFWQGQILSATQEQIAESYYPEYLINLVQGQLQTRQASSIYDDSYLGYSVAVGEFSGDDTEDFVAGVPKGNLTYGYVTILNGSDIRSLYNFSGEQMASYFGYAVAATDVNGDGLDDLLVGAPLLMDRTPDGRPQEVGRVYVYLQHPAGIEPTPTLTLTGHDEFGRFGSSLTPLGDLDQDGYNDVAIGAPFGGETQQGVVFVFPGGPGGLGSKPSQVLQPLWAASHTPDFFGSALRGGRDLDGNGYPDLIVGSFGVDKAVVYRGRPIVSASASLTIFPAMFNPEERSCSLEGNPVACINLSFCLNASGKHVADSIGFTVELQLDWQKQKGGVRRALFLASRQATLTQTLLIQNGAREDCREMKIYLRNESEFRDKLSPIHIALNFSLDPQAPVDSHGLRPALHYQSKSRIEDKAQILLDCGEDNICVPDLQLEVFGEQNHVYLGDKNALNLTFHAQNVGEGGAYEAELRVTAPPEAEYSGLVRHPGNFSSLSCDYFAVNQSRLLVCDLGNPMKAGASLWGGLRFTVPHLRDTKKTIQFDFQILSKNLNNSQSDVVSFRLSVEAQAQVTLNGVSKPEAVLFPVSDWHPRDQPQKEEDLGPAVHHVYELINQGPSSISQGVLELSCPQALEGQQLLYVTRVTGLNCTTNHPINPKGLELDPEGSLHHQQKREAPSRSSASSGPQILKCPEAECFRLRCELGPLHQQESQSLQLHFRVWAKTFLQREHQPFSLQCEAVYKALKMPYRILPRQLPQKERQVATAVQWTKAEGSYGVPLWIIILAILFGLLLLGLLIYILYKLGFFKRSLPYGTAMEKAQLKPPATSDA
Chain of integrin α5β1 (P05556 21-798): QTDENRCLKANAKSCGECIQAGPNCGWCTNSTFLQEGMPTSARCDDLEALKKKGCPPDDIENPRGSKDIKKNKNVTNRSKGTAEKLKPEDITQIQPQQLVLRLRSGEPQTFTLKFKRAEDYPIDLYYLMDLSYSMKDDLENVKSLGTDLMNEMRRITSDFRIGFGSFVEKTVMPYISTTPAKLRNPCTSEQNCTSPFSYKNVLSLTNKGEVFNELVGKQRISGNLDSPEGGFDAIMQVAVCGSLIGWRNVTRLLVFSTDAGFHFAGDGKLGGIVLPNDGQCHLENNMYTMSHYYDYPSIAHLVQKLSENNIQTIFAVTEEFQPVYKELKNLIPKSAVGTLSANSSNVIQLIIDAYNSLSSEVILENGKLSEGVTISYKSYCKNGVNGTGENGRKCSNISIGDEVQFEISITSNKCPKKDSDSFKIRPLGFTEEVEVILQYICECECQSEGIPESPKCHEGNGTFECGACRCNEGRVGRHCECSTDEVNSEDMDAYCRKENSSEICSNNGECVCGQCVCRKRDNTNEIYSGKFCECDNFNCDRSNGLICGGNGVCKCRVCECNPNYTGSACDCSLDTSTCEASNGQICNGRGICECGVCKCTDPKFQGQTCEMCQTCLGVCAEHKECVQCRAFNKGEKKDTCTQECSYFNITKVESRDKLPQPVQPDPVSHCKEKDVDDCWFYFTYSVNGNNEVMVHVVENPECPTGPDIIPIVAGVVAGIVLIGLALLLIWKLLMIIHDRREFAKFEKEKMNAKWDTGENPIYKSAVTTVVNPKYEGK

SMILES: COC(=O)[C@@H]1Cc2cn(C(=O)C(C)(C)C)c3c(cccc23)C2=CC(=O)N(CCCC[C@H](NC(=O)OC(C)(C)C)C(=O)N[C@@H](C)C(=O)N[C@@H](Cc3ccccc3)C(=O)N[C@@H](CC(C)C)C(=O)NCC(=O)N1)C2=O [Boc-Lys(Nε-maleimide)-Ala-Phe-Leu-Gly-Trp(Piv)-OMe]
- ring closure, isolated yield ([1]; from COC(=O)[C@H](Cc1cn(C(=O)C(C)(C)C)c2ccccc12)NC(=O)CNC(=O)[C@H](CC(C)C)NC(=O)[C@H](Cc1ccccc1)NC(=O)[C@H](C)NC(=O)[C@H](CCCCN1C(=O)C=CC1=O)NC(=O)OC(C)(C)C, 29-membered ring): 35%

SMILES: COC(=O)[C@@H]1Cc2c[nH]c3c(cccc23)C2C(=O)N(CCCC[C@H](N)C(=O)N[C@@H](CCCNC(=N)N)C(=O)NCC(=O)N[C@@H](CC(=O)O)C(=O)NCC(=O)N1)C(=O)C2SCCC(=O)NCC(=O)N[C@@H](Cc1ccccc1)C(=O)N[C@@H](CC(C)C)C(=O)NCC(=O)N[C@H]1C[C@H](O[C@H]2C[C@](O)(C(=O)CO)Cc3c(O)c4c(c(O)c32)C(=O)c2c(OC)cccc2C4=O)O[C@@H](C)[C@H]1O (stereo partly drawn) [RGD-GFLG-DOX]
- cytotoxicity (in words) (MCF-7 cells): lower cytotoxicity
- cytotoxicity (in words) (U87MG cells): stronger cytotoxicity than DOX
- cytotoxicity (in words) (LO2 cells): lower cytotoxicity
- cytotoxicity (in words) (MIHA cells): lower cytotoxicity
- cytotoxicity (in words) (HeLa cells): lower cytotoxicity
- cytotoxicity (in words) (A549 cells): stronger cytotoxicity than DOX

SMILES: CC[C@H](C)[C@@H]1NC(=O)[C@H](C(C)(C)C)NC(=O)[C@@H](NC(=O)OC(C)(C)C)Cc2cn(C(=O)C(C)(C)C)c3c(cccc23)C2=CC(=O)N(CCCC[C@@H](C(=O)OC)NC(=O)CNC1=O)C2=O [Boc-Trp(Piv)-Tle-Ile-Gly-Lys(Nε-maleimide)-OMe]
- ring closure, isolated yield ([1]; from CC[C@H](C)[C@H](NC(=O)[C@@H](NC(=O)[C@H](Cc1cn(C(=O)C(C)(C)C)c2ccccc12)NC(=O)OC(C)(C)C)C(C)(C)C)C(=O)NCC(=O)N[C@@H](CCCCN1C(=O)C=CC1=O)C(=O)OC, 26-membered ring): 34%

SMILES: COC(=O)[C@@H]1Cc2cn(C(=O)C(C)(C)C)c3c(cccc23)C2=CC(=O)N(CCCCCCCCCCC(=O)N1)C2=O [11-maleimidoundecanoyl-Trp(Piv)-OMe]
- ring closure, isolated yield ([1]; from COC(=O)[C@H](Cc1cn(C(=O)C(C)(C)C)c2ccccc12)NC(=O)CCCCCCCCCCN1C(=O)C=CC1=O, 22-membered ring): 22%

SMILES: CC[C@H](C)[C@@H]1NC(=O)[C@@H](NC(=O)OC(C)(C)C)CCCCN2C(=O)C=C(C2=O)c2cccc3c(cn(C(=O)C(C)(C)C)c23)C[C@@H](C(=O)N[C@H](C(=O)OC)[C@@H](C)CC)NC(=O)CNC(=O)[C@H](C)NC1=O [Boc-Lys(Nε-maleimide)-Ile-Ala-Gly-Trp(Piv)-Ile-OMe]
- ring closure, isolated yield ([1]; from CC[C@H](C)[C@H](NC(=O)[C@H](CCCCN1C(=O)C=CC1=O)NC(=O)OC(C)(C)C)C(=O)N[C@@H](C)C(=O)NCC(=O)N[C@@H](Cc1cn(C(=O)C(C)(C)C)c2ccccc12)C(=O)N[C@H](C(=O)OC)[C@@H](C)CC, 26-membered ring): 32%

SMILES: COC(=O)[C@@H]1Cc2cn(C(=O)C(C)(C)C)c3c(cccc23)C2=CC(=O)N(CCCCCC(=O)N[C@@H](C)C(=O)NCC(=O)N1)C2=O [6-maleimidohexanoyl-Ala-Gly-Trp(Piv)-OMe]
- ring closure, isolated yield ([1]; from COC(=O)[C@H](Cc1cn(C(=O)C(C)(C)C)c2ccccc12)NC(=O)CNC(=O)[C@H](C)NC(=O)CCCCCN1C(=O)C=CC1=O, 23-membered ring): 15%

SMILES: COC(=O)[C@@H]1Cc2cn(C(=O)C(C)(C)C)c3c(cccc23)C2=CC(=O)N(CCC(=O)N[C@@H](CC(=O)OC(C)(C)C)C(=O)N[C@@H](C)C(=O)N[C@@H](C(C)C)C(=O)NCC(=O)N1)C2=O [3-maleimidopropionyl-Asp(OtBu)-Ala-Val-Gly-Trp(Piv)-OMe]
- ring closure, isolated yield ([1]; from COC(=O)[C@H](Cc1cn(C(=O)C(C)(C)C)c2ccccc12)NC(=O)CNC(=O)[C@@H](NC(=O)[C@H](C)NC(=O)[C@H](CC(=O)OC(C)(C)C)NC(=O)CCN1C(=O)C=CC1=O)C(C)C, 26-membered ring): 43%

SMILES: N=C(N)NCCC[C@@H]1NC(=O)[C@H](CCCCNC(=S)Nc2ccc3c(c2)C(=O)OC32c3ccc(O)cc3Oc3cc(O)ccc32)NC(=O)[C@@H](Cc2ccccc2)NC(=O)[C@H](CC(=O)O)NC(=O)CNC1=O [10c, cyclo-(RGDfK (FITC)), reference compound]
- Kd (integrin α5β1): 2.76 µM
- kon (integrin α5β1): 25400 M⁻¹ s⁻¹
- Kd (integrin αvβ3): 65.5 µM
- kon (integrin αvβ3): 10300 M⁻¹ s⁻¹
- Kd (integrin αvβ5): 4.13 µM
- kon (integrin αvβ5): 23400 M⁻¹ s⁻¹

SMILES: COC(=O)[C@@H]1Cc2c[nH]c3c(cccc23)C2=CC(=O)N(CCCC[C@H](N)C(=O)N[C@@H](CCCNC(=N)N)C(=O)NCC(=O)N[C@@H](CC(=O)O)C(=O)NCC(=O)N1)C2=O [10a]
- Kd (integrin α5β1): 8.36 µM
- kon (integrin α5β1): 15300 M⁻¹ s⁻¹
- Kd (integrin αvβ3): 0.675 µM
- kon (integrin αvβ3): 42300 M⁻¹ s⁻¹
- Kd (integrin αvβ5): 6.13 µM
- kon (integrin αvβ5): 12500 M⁻¹ s⁻¹

SMILES: COC(=O)[C@@H]1Cc2cn(C(=O)C(C)(C)C)c3c(cccc23)C2=CC(=O)N(CCCCCCCCCCC(=O)NCC(=O)NCC(=O)N1)C2=O [11-maleimidoundecanoyl-Gly-Gly-Trp(Piv)-OMe]
- ring closure, isolated yield ([1]; from COC(=O)[C@H](Cc1cn(C(=O)C(C)(C)C)c2ccccc12)NC(=O)CNC(=O)CNC(=O)CCCCCCCCCCN1C(=O)C=CC1=O, 28-membered ring): 38%

SMILES: COC(=O)[C@@H]1Cc2cn(C(=O)C(C)(C)C)c3c(cccc23)C2=CC(=O)N(CCCC[C@H](NC(=O)OC(C)(C)C)C(=O)N1)C2=O [Boc-Lys(Nε-maleimide)-Trp(Piv)-OMe]
- ring closure, isolated yield ([1]; from COC(=O)[C@H](Cc1cn(C(=O)C(C)(C)C)c2ccccc12)NC(=O)[C@H](CCCCN1C(=O)C=CC1=O)NC(=O)OC(C)(C)C, 17-membered ring): 0%

SMILES: COC(=O)[C@@H]1Cc2cn(C(=O)C(C)(C)C)c3c(cccc23)C2=CC(=O)N(CCCCCC(=O)NC3(CCCC3)C(=O)N1)C2=O
- ring closure, isolated yield ([1]; from COC(=O)[C@H](Cc1cn(C(=O)C(C)(C)C)c2ccccc12)NC(=O)C1(NC(=O)CCCCCN2C(=O)C=CC2=O)CCCC1, 20-membered ring): 0%

SMILES: COC(=O)[C@@H]1Cc2cn(C(=O)C(C)(C)C)c3c(cccc23)C2=CC(=O)N(CCCC[C@H](NC(=O)OC(C)(C)C)C(=O)N[C@@H](CCCNC(=N)NS(=O)(=O)c3c(C)c(C)c4c(c3C)CC(C)(C)O4)C(=O)NCC(=O)N[C@@H](CC(=O)OC(C)(C)C)C(=O)NCC(=O)N1)C2=O
- ring closure, isolated yield ([1]; from COC(=O)[C@H](Cc1cn(C(=O)C(C)(C)C)c2ccccc12)NC(=O)CNC(=O)[C@H](CC(=O)OC(C)(C)C)NC(=O)CNC(=O)[C@H](CCCNC(=N)NS(=O)(=O)c1c(C)c(C)c2c(c1C)CC(C)(C)O2)NC(=O)[C@H](CCCCN1C(=O)C=CC1=O)NC(=O)OC(C)(C)C, 29-membered ring): 32%

SMILES: CC[C@H](C)[C@@H]1NC(=O)[C@H](Cc2ccccc2)NC(=O)[C@H](CCC(=O)OC(C)(C)C)NC(=O)CCN2C(=O)C=C(C2=O)c2cccc3c(cn(C(=O)C(C)(C)C)c23)C[C@@H](C(=O)OC)NC(=O)CNC1=O [3-maleimidopropionyl-Glu(OtBu)-Phe-Ile-Gly-Trp(Piv)-OMe]
- ring closure, isolated yield ([1]; from CC[C@H](C)[C@H](NC(=O)[C@H](Cc1ccccc1)NC(=O)[C@H](CCC(=O)OC(C)(C)C)NC(=O)CCN1C(=O)C=CC1=O)C(=O)NCC(=O)N[C@@H](Cc1cn(C(=O)C(C)(C)C)c2ccccc12)C(=O)OC, 26-membered ring): 35%

SMILES: COC(=O)[C@@H]1Cc2cn(C(=O)C(C)(C)C)c3c(cccc23)C2=CC(=O)N(CCCC[C@H](NC(=O)OC(C)(C)C)C(=O)N[C@@H](C(C)C)C(=O)N[C@@H](Cc3ccccc3)C(=O)NCC(=O)N1)C2=O [Boc-Lys(Nε-maleimide)-Val-Phe-Gly-Trp(Piv)-OMe]
- ring closure, isolated yield ([1]; from COC(=O)[C@H](Cc1cn(C(=O)C(C)(C)C)c2ccccc12)NC(=O)CNC(=O)[C@H](Cc1ccccc1)NC(=O)[C@@H](NC(=O)[C@H](CCCCN1C(=O)C=CC1=O)NC(=O)OC(C)(C)C)C(C)C, 26-membered ring): 39%
